Tests used:
Test in all cases: biochemical
Parameters in all cases: KINOMEscan competition binding, DNA-tagged kinase against immobilised ligand, qPCR read-out
Conditions in all cases: read-out: Percent Control
ABL2 = ABL2 (Homo sapiens, UniProt P42684)
ADRBK1 = target: T1, ADRBK1 (Homo sapiens, UniProt P25098)
T1 construct: gene GRK2

CDC42BPA = CDC42BPA (Homo sapiens, UniProt Q5VT25)
CDK4 = CDK4 (Homo sapiens, UniProt P11802)
CSNK2A2 = CSNK2A2 (Homo sapiens, UniProt P19784)
EIF2AK1 = EIF2AK1 (Homo sapiens, UniProt Q9BQI3)
EIF2AK1, sequence (Q9BQI3 whole entry): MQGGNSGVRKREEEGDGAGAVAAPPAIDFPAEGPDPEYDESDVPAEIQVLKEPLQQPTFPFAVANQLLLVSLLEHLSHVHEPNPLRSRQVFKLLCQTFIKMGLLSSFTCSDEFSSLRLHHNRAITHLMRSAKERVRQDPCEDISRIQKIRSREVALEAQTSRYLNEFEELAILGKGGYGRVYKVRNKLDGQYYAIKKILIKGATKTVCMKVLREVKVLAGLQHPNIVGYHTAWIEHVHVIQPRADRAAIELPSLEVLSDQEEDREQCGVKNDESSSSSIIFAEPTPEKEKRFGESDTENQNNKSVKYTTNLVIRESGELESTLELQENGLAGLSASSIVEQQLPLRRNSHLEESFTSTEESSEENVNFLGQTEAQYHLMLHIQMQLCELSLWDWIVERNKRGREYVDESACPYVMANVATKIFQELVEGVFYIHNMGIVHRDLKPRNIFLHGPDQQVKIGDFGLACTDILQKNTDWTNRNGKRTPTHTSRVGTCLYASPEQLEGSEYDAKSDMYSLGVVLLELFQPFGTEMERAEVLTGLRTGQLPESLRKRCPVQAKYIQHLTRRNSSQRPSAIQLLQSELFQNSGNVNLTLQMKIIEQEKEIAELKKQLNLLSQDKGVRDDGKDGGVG

EIF2AK2 = EIF2AK2 (Homo sapiens, UniProt P19525)
EPHA2 = EPHA2 (Homo sapiens, UniProt P29317)
EPHB2 = EPHB2 (Homo sapiens, UniProt P29323)
GSK3B = GSK3B (Homo sapiens, UniProt P49841)
MAP3K3 = MAP3K3 (Homo sapiens, UniProt Q99759)
MAPK9 = MAPK9 (Homo sapiens, UniProt P45984)
MYLK3 = MYLK3 (Homo sapiens, UniProt Q32MK0)
NEK3 = NEK3 (Homo sapiens, UniProt P51956)
NEK3, sequence (P51956 whole entry): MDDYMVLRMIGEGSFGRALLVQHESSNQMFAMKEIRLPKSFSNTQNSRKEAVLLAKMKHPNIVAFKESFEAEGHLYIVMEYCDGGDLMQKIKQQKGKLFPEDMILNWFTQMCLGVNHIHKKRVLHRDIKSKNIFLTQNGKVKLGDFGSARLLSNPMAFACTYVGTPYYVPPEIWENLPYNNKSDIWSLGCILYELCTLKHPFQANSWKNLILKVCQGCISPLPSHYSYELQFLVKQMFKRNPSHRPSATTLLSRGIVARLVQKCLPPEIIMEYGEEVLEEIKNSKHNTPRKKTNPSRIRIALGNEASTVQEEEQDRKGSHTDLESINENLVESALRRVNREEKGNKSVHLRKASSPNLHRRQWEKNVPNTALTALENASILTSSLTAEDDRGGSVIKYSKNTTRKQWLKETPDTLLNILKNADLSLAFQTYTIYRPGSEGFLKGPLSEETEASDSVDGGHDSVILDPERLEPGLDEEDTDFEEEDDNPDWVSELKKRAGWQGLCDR

NUAK1 = NUAK1 (Homo sapiens, UniProt O60285)
NUAK1, sequence (O60285 whole entry): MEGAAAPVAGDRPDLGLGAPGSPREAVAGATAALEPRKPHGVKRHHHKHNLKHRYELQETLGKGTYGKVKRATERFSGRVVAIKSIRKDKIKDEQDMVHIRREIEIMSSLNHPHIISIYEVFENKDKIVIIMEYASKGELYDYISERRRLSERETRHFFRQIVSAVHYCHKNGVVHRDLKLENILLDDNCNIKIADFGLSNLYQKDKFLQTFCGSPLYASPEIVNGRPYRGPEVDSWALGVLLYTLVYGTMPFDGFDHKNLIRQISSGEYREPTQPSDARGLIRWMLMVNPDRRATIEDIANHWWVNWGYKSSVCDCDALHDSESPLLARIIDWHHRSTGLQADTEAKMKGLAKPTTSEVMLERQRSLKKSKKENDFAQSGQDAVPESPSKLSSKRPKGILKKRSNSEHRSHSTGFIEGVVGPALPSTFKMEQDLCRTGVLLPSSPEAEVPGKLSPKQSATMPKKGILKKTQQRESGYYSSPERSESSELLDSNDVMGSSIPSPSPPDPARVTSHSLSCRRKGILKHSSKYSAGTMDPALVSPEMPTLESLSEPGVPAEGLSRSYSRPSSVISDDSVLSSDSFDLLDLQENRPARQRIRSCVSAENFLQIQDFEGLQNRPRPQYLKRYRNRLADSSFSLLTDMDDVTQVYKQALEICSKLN

PAK6 = PAK6 (Homo sapiens, UniProt Q9NQU5)
PIKFYVE = PIKFYVE (Homo sapiens, UniProt Q9Y2I7)
PKN2 = PKN2 (Homo sapiens, UniProt Q16513)
STK16 = STK16 (Homo sapiens, UniProt O75716)
STK16, sequence (O75716 whole entry): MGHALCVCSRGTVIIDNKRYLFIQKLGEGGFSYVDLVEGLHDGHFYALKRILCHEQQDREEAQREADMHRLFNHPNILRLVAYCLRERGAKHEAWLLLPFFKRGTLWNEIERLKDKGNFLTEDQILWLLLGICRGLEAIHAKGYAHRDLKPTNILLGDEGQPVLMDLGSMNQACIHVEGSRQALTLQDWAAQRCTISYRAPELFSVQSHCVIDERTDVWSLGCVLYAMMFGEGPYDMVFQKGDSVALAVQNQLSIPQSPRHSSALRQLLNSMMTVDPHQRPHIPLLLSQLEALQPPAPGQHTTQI

TLK1 = TLK1 (Homo sapiens, UniProt Q9UKI8)
TLK1, sequence (Q9UKI8 whole entry): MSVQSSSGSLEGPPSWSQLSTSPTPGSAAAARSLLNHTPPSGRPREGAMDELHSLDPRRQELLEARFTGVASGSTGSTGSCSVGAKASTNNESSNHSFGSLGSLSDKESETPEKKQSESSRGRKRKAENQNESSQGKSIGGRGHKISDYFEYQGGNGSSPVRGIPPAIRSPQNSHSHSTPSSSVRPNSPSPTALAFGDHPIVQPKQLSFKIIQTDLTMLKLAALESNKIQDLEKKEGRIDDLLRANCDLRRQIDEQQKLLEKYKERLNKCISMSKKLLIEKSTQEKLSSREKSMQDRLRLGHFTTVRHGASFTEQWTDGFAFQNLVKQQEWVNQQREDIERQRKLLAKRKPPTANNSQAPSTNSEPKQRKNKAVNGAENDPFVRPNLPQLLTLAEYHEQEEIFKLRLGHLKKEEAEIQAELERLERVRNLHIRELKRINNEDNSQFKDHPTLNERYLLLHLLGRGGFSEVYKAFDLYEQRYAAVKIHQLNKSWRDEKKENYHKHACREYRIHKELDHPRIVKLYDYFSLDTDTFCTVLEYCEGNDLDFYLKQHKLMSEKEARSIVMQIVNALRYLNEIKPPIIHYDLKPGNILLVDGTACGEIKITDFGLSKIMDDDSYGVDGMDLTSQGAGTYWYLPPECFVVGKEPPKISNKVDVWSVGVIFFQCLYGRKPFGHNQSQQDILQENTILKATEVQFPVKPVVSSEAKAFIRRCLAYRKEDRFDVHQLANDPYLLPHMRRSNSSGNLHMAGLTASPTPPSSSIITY

T1 sequence (P25098 whole entry): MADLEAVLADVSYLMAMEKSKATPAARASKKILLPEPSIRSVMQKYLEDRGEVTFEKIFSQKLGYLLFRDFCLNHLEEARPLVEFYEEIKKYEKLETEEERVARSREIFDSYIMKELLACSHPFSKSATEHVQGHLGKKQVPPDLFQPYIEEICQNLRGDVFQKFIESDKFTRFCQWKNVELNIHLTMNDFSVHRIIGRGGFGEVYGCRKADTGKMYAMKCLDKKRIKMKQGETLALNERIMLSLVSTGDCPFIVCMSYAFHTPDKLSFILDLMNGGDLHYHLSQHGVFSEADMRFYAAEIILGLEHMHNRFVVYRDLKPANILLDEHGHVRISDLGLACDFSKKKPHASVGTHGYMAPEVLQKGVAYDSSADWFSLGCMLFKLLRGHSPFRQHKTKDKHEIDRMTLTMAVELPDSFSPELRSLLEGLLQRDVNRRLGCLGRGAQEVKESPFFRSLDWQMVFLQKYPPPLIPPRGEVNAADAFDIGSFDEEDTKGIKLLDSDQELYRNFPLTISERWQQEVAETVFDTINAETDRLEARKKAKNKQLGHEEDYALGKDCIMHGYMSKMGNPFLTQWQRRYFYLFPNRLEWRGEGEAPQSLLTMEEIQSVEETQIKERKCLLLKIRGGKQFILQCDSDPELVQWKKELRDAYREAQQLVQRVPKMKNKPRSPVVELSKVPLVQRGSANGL
ABL2, sequence (P42684 whole entry): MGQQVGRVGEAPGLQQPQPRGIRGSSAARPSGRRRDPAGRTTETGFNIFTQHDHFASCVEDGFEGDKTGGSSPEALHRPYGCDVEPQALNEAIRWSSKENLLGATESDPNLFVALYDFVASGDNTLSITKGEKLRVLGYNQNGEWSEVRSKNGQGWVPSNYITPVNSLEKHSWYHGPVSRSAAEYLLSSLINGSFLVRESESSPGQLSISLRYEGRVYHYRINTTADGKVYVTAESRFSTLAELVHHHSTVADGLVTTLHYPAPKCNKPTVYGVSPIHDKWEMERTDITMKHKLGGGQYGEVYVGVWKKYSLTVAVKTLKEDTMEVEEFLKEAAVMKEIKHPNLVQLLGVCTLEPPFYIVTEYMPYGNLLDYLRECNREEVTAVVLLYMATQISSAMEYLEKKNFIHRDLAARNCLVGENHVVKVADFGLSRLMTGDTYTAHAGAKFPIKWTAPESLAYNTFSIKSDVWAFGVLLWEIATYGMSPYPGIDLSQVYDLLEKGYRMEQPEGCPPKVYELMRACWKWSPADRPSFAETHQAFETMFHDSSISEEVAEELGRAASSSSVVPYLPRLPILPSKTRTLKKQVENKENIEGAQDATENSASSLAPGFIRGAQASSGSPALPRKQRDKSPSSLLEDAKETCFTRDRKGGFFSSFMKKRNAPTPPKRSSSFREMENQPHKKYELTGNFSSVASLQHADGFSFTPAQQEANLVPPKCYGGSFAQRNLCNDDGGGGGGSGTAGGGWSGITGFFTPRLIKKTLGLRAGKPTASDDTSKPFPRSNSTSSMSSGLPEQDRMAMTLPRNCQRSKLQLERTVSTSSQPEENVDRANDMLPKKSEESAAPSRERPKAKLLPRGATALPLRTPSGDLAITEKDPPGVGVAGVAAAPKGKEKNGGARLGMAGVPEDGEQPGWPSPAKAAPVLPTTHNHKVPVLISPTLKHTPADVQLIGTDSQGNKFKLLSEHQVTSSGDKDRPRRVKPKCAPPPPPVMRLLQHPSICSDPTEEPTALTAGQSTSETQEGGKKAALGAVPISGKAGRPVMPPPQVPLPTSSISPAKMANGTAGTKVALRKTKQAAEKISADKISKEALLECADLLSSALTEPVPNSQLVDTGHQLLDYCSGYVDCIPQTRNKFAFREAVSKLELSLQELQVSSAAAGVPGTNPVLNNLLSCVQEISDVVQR
CDK4, sequence (P11802 whole entry): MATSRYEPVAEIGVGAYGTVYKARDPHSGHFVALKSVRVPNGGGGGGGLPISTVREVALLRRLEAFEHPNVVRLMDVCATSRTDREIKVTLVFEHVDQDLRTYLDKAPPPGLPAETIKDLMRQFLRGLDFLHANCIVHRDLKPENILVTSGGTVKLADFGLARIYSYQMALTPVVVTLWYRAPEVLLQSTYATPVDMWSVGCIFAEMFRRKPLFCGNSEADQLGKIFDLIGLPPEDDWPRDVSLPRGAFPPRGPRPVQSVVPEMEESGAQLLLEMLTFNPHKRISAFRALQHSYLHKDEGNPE

## Oc1ccc(C2=Cc3ccc(O)cc3OC2)cc1 [compound 1, idronoxil]
ABL2
  remaining binding at 10 µM: 79%
ADRBK1
  remaining binding at 10 µM: 76%
CDC42BPA
  remaining binding at 10 µM: 98%
CDK4
  remaining binding at 10 µM: 100%
CSNK2A2
  remaining binding at 10 µM: 35%
EIF2AK1
  remaining binding at 10 µM: 88%
EIF2AK2
  remaining binding at 10 µM: 85%
EPHA2
  remaining binding at 10 µM: 78%
EPHB2
  remaining binding at 10 µM: 86%
GSK3B
  remaining binding at 10 µM: 92%
MAP3K3
  remaining binding at 10 µM: 81%
MAPK9
  remaining binding at 10 µM: 93%
MYLK3
  remaining binding at 10 µM: 66%
NEK3
  remaining binding at 10 µM: 80%
NUAK1
  remaining binding at 10 µM: 97%
PAK6
  remaining binding at 10 µM: 100%
PIKFYVE
  remaining binding at 10 µM: 91%
PKN2
  remaining binding at 10 µM: 70%
STK16
  remaining binding at 10 µM: 100%
TLK1
  remaining binding at 10 µM: 71%
